# In PubChem BioAssay AID2060487 (Molecular Pharmacology Branch, DTP, NCI, 2025):
# Tested on: 997537-175-T-J1-PDC complex spheroid viability
# Experiment: Anticancer human tumor 997537-175-T-J1-PDC patient-derived colon adenocarcinoma cell line growth inhibition [GQUAD]
# Conditions: for IC50: curve of first compound; for viability, T/C: stronger effect = lower value
# Method in brief: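 Tumor cells were grown as complex spheroids with HUVEC endothelial cells and mesenchymal stem cells as stroma. G-quadruplex stabilizers were combined with targeted agents over half-log dilutions from near the clinical Cmax, or from 10 microM.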
# [1] = second compound 0.0316 µM, first compound 0.0316 µM
# [2] = second compound 0.0316 µM, first compound 0.1 µM
# [3] = second compound 0.0316 µM, first compound 0.316 µM
# [4] = second compound 0.0316 µM, first compound 1 µM
# [5] = second compound 0.0316 µM, first compound 3.16 µM
# [6] = second compound 0.0316 µM, first compound 10 µM
# [7] = second compound 0.1 µM, first compound 0.0316 µM
# [8] = second compound 0.1 µM, first compound 0.1 µM
# [9] = second compound 0.1 µM, first compound 0.316 µM
# [10] = second compound 0.1 µM, first compound 1 µM
# [11] = second compound 0.1 µM, first compound 3.16 µM
# [12] = second compound 0.1 µM, first compound 10 µM
# [13] = second compound 0.316 µM, first compound 0.0316 µM
# [14] = second compound 0.316 µM, first compound 0.1 µM
# [15] = second compound 0.316 µM, first compound 0.316 µM
# [16] = second compound 0.316 µM, first compound 1 µM
# [17] = second compound 0.316 µM, first compound 3.16 µM
# [18] = second compound 0.316 µM, first compound 10 µM
# [19] = second compound 1 µM, first compound 0.0316 µM
# [20] = second compound 1 µM, first compound 0.1 µM
# [21] = second compound 1 µM, first compound 0.316 µM
# [22] = second compound 1 µM, first compound 1 µM
# [23] = second compound 1 µM, first compound 3.16 µM
# [24] = second compound 1 µM, first compound 10 µM
# [25] = second compound 3.16 µM, first compound 0.0316 µM
# [26] = second compound 3.16 µM, first compound 0.1 µM
# [27] = second compound 3.16 µM, first compound 0.316 µM
# [28] = second compound 3.16 µM, first compound 1 µM
# [29] = second compound 3.16 µM, first compound 3.16 µM
# [30] = second compound 3.16 µM, first compound 10 µM
# [31] = second compound 10 µM, first compound 0.0316 µM
# [32] = second compound 10 µM, first compound 0.1 µM
# [33] = second compound 10 µM, first compound 0.316 µM
# [34] = second compound 10 µM, first compound 1 µM
# [35] = second compound 10 µM, first compound 3.16 µM
# [36] = second compound 10 µM, first compound 10 µM
# 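Further: spheroids exposed to the agents for 7 days.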
# 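Wherever viability, T/C is given: 100% = DMSO vehicle control viability.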
smiles,measurement,setting,value
Cc1cccc(N(C)C(=O)C2C(O)CCN2c2nc(C)cc(C(F)(F)F)c2C#N)c1 (stereo unspecified) + CN(C)c1ccc(Nc2c3ccc(NC(=O)CCN4CCCC4)cc3nc3cc(NC(=O)CCN4CCCC4)ccc23)cc1,IC50,second compound 0.0316 µM,> 10 µM
same,IC50,second compound 0.1 µM,> 10 µM
same,IC50,second compound 0.316 µM,> 10 µM
same,IC50,second compound 1 µM,> 10 µM
same,IC50,second compound 3.16 µM,> 10 µM
same,IC50,second compound 10 µM,> 10 µM
same,"viability, T/C",[1],97.8%
same,"viability, T/C",[2],101%
same,"viability, T/C",[3],101%
same,"viability, T/C",[4],80.2%
same,"viability, T/C",[5],85.4%
same,"viability, T/C",[6],105%
same,"viability, T/C",[7],91.5%
same,"viability, T/C",[8],85.9%
same,"viability, T/C",[9],87.7%
same,"viability, T/C",[10],70.3%
same,"viability, T/C",[11],103%
same,"viability, T/C",[12],89.7%
same,"viability, T/C",[13],83.8%
same,"viability, T/C",[14],85.7%
same,"viability, T/C",[15],81.4%
same,"viability, T/C",[16],77.7%
same,"viability, T/C",[17],89.2%
same,"viability, T/C",[18],104%
same,"viability, T/C",[19],84.9%
same,"viability, T/C",[20],61.3%
same,"viability, T/C",[21],83.2%
same,"viability, T/C",[22],81.2%
same,"viability, T/C",[23],104%
same,"viability, T/C",[24],85.3%
same,"viability, T/C",[25],61.4%
same,"viability, T/C",[26],91.3%
same,"viability, T/C",[27],77%
same,"viability, T/C",[28],93.8%
same,"viability, T/C",[29],103%
same,"viability, T/C",[30],103%
same,"viability, T/C",[31],72.5%
same,"viability, T/C",[32],83.9%
same,"viability, T/C",[33],106%
same,"viability, T/C",[34],88.9%
same,"viability, T/C",[35],106%
same,"viability, T/C",[36],103%
Cn1ncnc1[C@H]1c2n[nH]c(=O)c3cc(F)cc(c23)N[C@@H]1c1ccc(F)cc1 + CN(C)c1ccc(Nc2c3ccc(NC(=O)CCN4CCCC4)cc3nc3cc(NC(=O)CCN4CCCC4)ccc23)cc1,IC50,second compound 0.0316 µM,> 0.316 µM
same,IC50,second compound 0.1 µM,> 0.316 µM
same,IC50,second compound 0.316 µM,> 0.316 µM
same,IC50,second compound 1 µM,> 0.316 µM
same,IC50,second compound 3.16 µM,> 0.316 µM
same,IC50,second compound 10 µM,> 0.316 µM
same,"viability, T/C","second compound 0.0316 µM, first compound 0.000999 µM",103%
same,"viability, T/C","second compound 0.0316 µM, first compound 0.00316 µM",88.8%
same,"viability, T/C","second compound 0.0316 µM, first compound 0.00999 µM",106%
same,"viability, T/C",[1],66.6%
same,"viability, T/C","second compound 0.0316 µM, first compound 0.0999 µM",81.1%
same,"viability, T/C",[3],68.1%
same,"viability, T/C","second compound 0.1 µM, first compound 0.000999 µM",100%
same,"viability, T/C","second compound 0.1 µM, first compound 0.00316 µM",97%
same,"viability, T/C","second compound 0.1 µM, first compound 0.00999 µM",91.9%
same,"viability, T/C",[7],63%
same,"viability, T/C","second compound 0.1 µM, first compound 0.0999 µM",102%
same,"viability, T/C",[9],82.1%
same,"viability, T/C","second compound 0.316 µM, first compound 0.000999 µM",94.8%
same,"viability, T/C","second compound 0.316 µM, first compound 0.00316 µM",102%
same,"viability, T/C","second compound 0.316 µM, first compound 0.00999 µM",95.2%
same,"viability, T/C",[13],91.2%
same,"viability, T/C","second compound 0.316 µM, first compound 0.0999 µM",79.7%
same,"viability, T/C",[15],86.8%
same,"viability, T/C","second compound 1 µM, first compound 0.000999 µM",84.7%
same,"viability, T/C","second compound 1 µM, first compound 0.00316 µM",70.5%
same,"viability, T/C","second compound 1 µM, first compound 0.00999 µM",79.2%
same,"viability, T/C",[19],86.5%
same,"viability, T/C","second compound 1 µM, first compound 0.0999 µM",98.5%
same,"viability, T/C",[21],79.6%
same,"viability, T/C","second compound 3.16 µM, first compound 0.000999 µM",69.4%
same,"viability, T/C","second compound 3.16 µM, first compound 0.00316 µM",83.6%
same,"viability, T/C","second compound 3.16 µM, first compound 0.00999 µM",94.6%
same,"viability, T/C",[25],91.3%
same,"viability, T/C","second compound 3.16 µM, first compound 0.0999 µM",94.8%
same,"viability, T/C",[27],85.9%
same,"viability, T/C","second compound 10 µM, first compound 0.000999 µM",77.1%
same,"viability, T/C","second compound 10 µM, first compound 0.00316 µM",87.5%
same,"viability, T/C","second compound 10 µM, first compound 0.00999 µM",91.2%
same,"viability, T/C",[31],78.6%
same,"viability, T/C","second compound 10 µM, first compound 0.0999 µM",109%
same,"viability, T/C",[33],104%
O=C(c1cc(Cc2n[nH]c(=O)c3ccccc23)ccc1F)N1CCN(C(=O)C2CC2)CC1 + CN(C)c1ccc(Nc2c3ccc(NC(=O)CCN4CCCC4)cc3nc3cc(NC(=O)CCN4CCCC4)ccc23)cc1,IC50,second compound 0.0316 µM,> 10 µM
same,IC50,second compound 0.1 µM,> 10 µM
same,IC50,second compound 0.316 µM,> 10 µM
same,IC50,second compound 1 µM,> 10 µM
same,IC50,second compound 3.16 µM,> 10 µM
same,IC50,second compound 10 µM,> 10 µM
same,"viability, T/C",[1],106%
same,"viability, T/C",[2],89.7%
same,"viability, T/C",[3],91.4%
same,"viability, T/C",[4],79.1%
same,"viability, T/C",[5],98.9%
same,"viability, T/C",[6],90.6%
same,"viability, T/C",[7],92%
same,"viability, T/C",[8],99.2%
same,"viability, T/C",[9],97.2%
same,"viability, T/C",[10],74.5%
same,"viability, T/C",[11],91.4%
same,"viability, T/C",[12],88.9%
same,"viability, T/C",[13],88.3%
same,"viability, T/C",[14],78.2%
same,"viability, T/C",[15],90.4%
same,"viability, T/C",[16],72%
same,"viability, T/C",[17],97.3%
same,"viability, T/C",[18],84.3%
same,"viability, T/C",[19],85.7%
same,"viability, T/C",[20],86%
same,"viability, T/C",[21],77.6%
same,"viability, T/C",[22],85.6%
same,"viability, T/C",[23],92.4%
same,"viability, T/C",[24],85.4%
same,"viability, T/C",[25],82.8%
same,"viability, T/C",[26],105%
same,"viability, T/C",[27],88.7%
same,"viability, T/C",[28],73.9%
same,"viability, T/C",[29],85.8%
same,"viability, T/C",[30],105%
same,"viability, T/C",[31],74.9%
same,"viability, T/C",[32],97.4%
same,"viability, T/C",[33],95.2%
same,"viability, T/C",[34],93.8%
same,"viability, T/C",[35],102%
same,"viability, T/C",[36],96%
